This note sets out measurements from ChEMBL document CHEMBL3217747, “Discovery and pharmacological characterization of a selective delta opiate receptor antagonist (CP-646,777)” (Medchemcomm, 2011).

Series [1] can be described thus: Plasma concentration in mouse at 32 mg/kg, sc after 4 hrs. Format: ADME, organism-based. Further details: dose 32 mg/kg, route subcutaneous.
The nature of series [2]: Fraction unbound in mouse at 32 mg/kg, sc after 4 hrs. Format: ADME, organism-based. Further details: dose 32 mg/kg, route subcutaneous. Particulars: in vivo.
The nature of series [3]: Ratio of ED50 for Reversal of SNC-80 induced hypothermia in ICR mouse over Ki for human delta opioid receptor.
The nature of series [4]: Ratio of plasma concentration in mouse over Ki for human delta opioid receptor. It counts as ADME, cell-free.
Series [5] has as its target Kappa-type opioid receptor (Homo sapiens, UniProt P41145). Nature of the series: Displacement of [3H]diprenorphine from human kappa opioid receptor expressed in CHO cells by liquid scintillation counting analysis. It counts as cell-based. On the technique in general: In a radioligand displacement assay an active substance lowers the binding of a labelled ligand.
The target of series [6] is T1, Delta-type opioid receptor (Homo sapiens, UniProt P41143). Nature of the series: Antagonist activity at delta opioid receptor (unknown origin) assessed as [35S]-GTPgammaS binding by liquid scintillation counting analysis. Format: functional. (In general: Binding of GTPγS marks nucleotide exchange on a G protein.)
T1 sequence (P41143 whole entry): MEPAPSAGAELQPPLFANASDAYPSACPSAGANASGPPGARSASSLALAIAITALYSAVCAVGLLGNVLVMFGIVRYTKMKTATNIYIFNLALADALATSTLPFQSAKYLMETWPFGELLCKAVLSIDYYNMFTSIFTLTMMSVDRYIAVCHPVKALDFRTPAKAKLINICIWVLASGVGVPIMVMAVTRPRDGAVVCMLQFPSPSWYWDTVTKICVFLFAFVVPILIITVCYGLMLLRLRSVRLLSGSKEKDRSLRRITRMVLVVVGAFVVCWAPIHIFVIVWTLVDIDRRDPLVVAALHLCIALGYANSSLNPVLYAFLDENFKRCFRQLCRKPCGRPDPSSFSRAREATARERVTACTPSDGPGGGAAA
The next series concerns the target Mu-type opioid receptor (Homo sapiens, UniProt P35372). Nature of the series: Displacement of [3H]diprenorphine from human mu opioid receptor expressed in CHO cells by liquid scintillation counting analysis. Format: cell-based.
Series [7] relates to Cerebrospinal fluid. Nature of the series: Drug uptake in rat cerebrospinal fluid at 10 mg/kg, sc. It counts as ADME, organism-based. Also on record: dose 10 mg/kg, route subcutaneous. The settings on record: in vivo, read-out: Drug uptake.
For the next series, the system named is MDCK. Nature of the series: Efflux ratio of apparent permeability across […] in MDCK cells expressing human P-gp. It counts as ADME, cell-based, Canis lupus familiaris. Particulars: dog.
Series [8] addresses T1, Delta-type opioid receptor. Nature of the series: Displacement of [3H]diprenorphine from human delta opioid receptor expressed in CHO cells by liquid scintillation counting analysis. It counts as cell-based.
The nature of series [9]: In vitro clearance in human liver microsomes. It counts as ADME. Particulars: read-out: CLH. For orientation: Microsomes from liver hold many membrane-bound enzymes, among them those of drug oxidation.
In series [10] the test system is Cerebrospinal fluid. The series can be described thus: Drug uptake in rat cerebrospinal fluid at 32 mg/kg, sc. It counts as ADME, organism-based. The settings on record: in vivo, read-out: Drug uptake. Also on record: dose 32 mg/kg, route subcutaneous.
The next series is filed under the species Mus musculus. Nature of the series: Reversal of SNC-80 induced hypothermia in ICR mouse assessed as rectal temperature. It counts as functional.
For another series, the system named is Brain. Nature of the series: Ratio of drug uptake from wild type P-gp mouse brain to P-gp deficient mouse brain compound treated subcutaneously. Format: ADME. The settings on record: sc.

Sequence of Mu-type opioid receptor (P35372 whole entry): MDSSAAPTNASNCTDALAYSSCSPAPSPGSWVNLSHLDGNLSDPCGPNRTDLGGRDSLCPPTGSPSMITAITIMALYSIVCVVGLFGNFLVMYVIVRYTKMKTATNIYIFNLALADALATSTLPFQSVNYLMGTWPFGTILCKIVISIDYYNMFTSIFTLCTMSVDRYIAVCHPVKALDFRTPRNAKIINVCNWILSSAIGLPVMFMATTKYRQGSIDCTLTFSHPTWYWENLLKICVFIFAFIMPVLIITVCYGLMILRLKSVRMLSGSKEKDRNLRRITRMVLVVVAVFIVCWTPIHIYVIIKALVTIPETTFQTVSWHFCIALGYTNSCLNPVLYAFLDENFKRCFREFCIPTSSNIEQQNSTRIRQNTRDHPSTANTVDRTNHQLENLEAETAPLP
Sequence of Kappa-type opioid receptor (P41145 whole entry): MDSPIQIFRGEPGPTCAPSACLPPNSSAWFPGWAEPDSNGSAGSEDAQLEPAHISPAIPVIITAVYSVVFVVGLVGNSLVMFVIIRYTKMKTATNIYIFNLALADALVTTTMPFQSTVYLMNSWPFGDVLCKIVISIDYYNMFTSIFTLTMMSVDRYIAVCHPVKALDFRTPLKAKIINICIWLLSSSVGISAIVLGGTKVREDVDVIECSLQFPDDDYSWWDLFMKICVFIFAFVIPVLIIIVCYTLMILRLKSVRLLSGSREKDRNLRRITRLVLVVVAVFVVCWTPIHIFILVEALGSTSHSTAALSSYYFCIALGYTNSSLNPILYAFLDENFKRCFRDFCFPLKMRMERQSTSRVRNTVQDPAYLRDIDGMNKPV

As for `CCC[C@@H](C)CN1CCC(c2cccc(O)c2)(c2ncc(C(=O)N(CC)CC)cn2)CC1`, in [1], the concentration at 4 h stood at 7500 nM. Moreover, the fraction unbound (usually free concentration divided by total concentration) at 4 h in [2] stood at 0.3. Moreover, the Ratio in series [3] amounted to 15; in series [4], 100; in the series with MDCK, 13; with Brain, 6.5. The Ki (as a rule, the dissociation constant of the complex between target and ligand, obtained from inhibition or displacement) in series [5] was 142 nM; on Mu-type opioid receptor, 830 nM; in [8] it was 2 nM. Also, the IC50 – broadly, the concentration needed to halve the response being measured – in series [6] was found to be 35 nM. In addition, the concentration came out at 103 nM in the series on Cerebrospinal fluid [7] and 300 nM with Cerebrospinal fluid [10]. In series [9], the CLint scaled was 48 mL/min/kg. In addition, in the series listed under Mus musculus, the ED50 (as a rule, the midpoint of the dose-response relation) was 3 mg/kg.

Turning to `CCCC(C)CN1CCC(c2cccc(C(N)=O)c2)(c2ncc(C(=O)N(CC)CC)cn2)CC1` (stereo not drawn), the Ki in series [5] was 65 nM; on Mu-type opioid receptor, more than 890 nM; in [8], 2 nM. In addition, the IC50 in series [6] turned out to be 35 nM. In addition, in the series with MDCK, the Ratio is listed as 13. Also, the CLint scaled in series [9] was found to be 13 mL/min/kg.

`CCCC(C)CN1CCC(c2ccc(C(=O)N(C)C)cc2)(c2cccc(O)c2)CC1` (stereo not drawn): at Mu-type opioid receptor, the Ki was more than 890 nM. In addition, the CLint scaled in series [9] was found to be 80 mL/min/kg.

As to `CCCC(C)CN1CCC(c2cccc(O)c2)(c2ncc(C(=O)N(CC)CC)cn2)CC1` (stereo not drawn), the Ki in series [5] is more than 890 nM; at Mu-type opioid receptor, more than 890 nM; in [8], 6 nM. Besides, the IC50 in series [6] was 21 nM. In addition, the Ratio in the series with MDCK is given as 13. In addition, in series [9], the CLint scaled was found to be 40 mL/min/kg.
